Measurements published in ChEMBL document CHEMBL1156950, “Synthesis and biological evaluation of 4-anilinoquinolines as potent inhibitors of epidermal growth factor receptor” (J Med Chem, 2010).

Legend:
[1] = target: Serine/threonine-protein kinase Chk2 (Homo sapiens) (UniProt O96017); assay: Inhibition of CHK2 at 10 uM assessed as residual activity by [33P]ATP radioactive filter binding assay relative to control
[2] = target: Rho-associated protein kinase 2 (Homo sapiens) (UniProt O75116); assay: Inhibition of ROCK2 at 10 uM assessed as residual activity by [33P]ATP radioactive filter binding assay relative to control
[3] = target: MAP kinase-activated protein kinase 5 (Homo sapiens) (UniProt Q8IW41); assay: Inhibition of PRAK at 10 uM assessed as residual activity by [33P]ATP radioactive filter binding assay relative to control
[4] = target: Serine/threonine-protein kinase BRSK1 (Homo sapiens) (UniProt Q8TDC3); assay: Inhibition of BRSK1 at 10 uM assessed as residual activity by [33P]ATP radioactive filter binding assay relative to control
[5] = target: Misshapen-like kinase 1 (Homo sapiens) (UniProt Q8N4C8); assay: Inhibition of MINK1 at 10 uM assessed as residual activity by [33P]ATP radioactive filter binding assay relative to control
[6] = target: Insulin-like growth factor 1 receptor (Homo sapiens) (UniProt P08069); assay: Inhibition of IGF-1R at 10 uM assessed as residual activity by [33P]ATP radioactive filter binding assay relative to control
cells [7] = details: Mus musculus, BaF3, 96 h
Description: Growth inhibition of mouse BA/F3 cells expressing EGFR Del1 mutant after 96 hrs by cell titer-glo assay

[8] = target: Serine/threonine-protein kinase PAK 6 (Homo sapiens) (UniProt Q9NQU5); assay: Inhibition of PAK6 at 10 uM assessed as residual activity by [33P]ATP radioactive filter binding assay relative to control
Sequence of Serine/threonine-protein kinase PAK 6 (Homo sapiens) (Q9NQU5 whole entry, looked up): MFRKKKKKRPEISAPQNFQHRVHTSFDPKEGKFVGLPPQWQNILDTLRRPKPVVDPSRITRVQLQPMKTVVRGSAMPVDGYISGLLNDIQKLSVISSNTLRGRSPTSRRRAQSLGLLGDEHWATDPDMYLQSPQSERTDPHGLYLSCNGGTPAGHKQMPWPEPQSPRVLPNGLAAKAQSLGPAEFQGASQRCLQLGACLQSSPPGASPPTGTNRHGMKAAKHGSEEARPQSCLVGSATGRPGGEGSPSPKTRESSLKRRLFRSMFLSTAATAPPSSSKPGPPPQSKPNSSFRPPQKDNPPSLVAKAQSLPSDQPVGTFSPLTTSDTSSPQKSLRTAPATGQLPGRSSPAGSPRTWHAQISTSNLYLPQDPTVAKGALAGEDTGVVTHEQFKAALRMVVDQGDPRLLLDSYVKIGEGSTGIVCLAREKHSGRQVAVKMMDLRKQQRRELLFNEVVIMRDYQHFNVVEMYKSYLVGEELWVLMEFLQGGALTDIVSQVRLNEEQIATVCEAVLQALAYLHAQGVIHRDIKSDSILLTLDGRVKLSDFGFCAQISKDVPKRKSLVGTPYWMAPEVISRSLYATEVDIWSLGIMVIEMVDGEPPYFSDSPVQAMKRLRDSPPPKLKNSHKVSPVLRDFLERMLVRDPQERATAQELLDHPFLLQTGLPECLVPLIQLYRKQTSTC

[9] = target: Maternal embryonic leucine zipper kinase (Homo sapiens) (UniProt Q14680); assay: Inhibition of MELK at 10 uM assessed as residual activity by [33P]ATP radioactive filter binding assay relative to control
[10] = target: Mitogen-activated protein kinase 10 (Homo sapiens) (UniProt P53779); assay: Inhibition of JNK3 at 10 uM assessed as residual activity by [33P]ATP radioactive filter binding assay relative to control
[11] = target: Dual specificity tyrosine-phosphorylation-regulated kinase 1A (Homo sapiens) (UniProt Q13627); assay: Inhibition of DYRK1A at 10 uM assessed as residual activity by [33P]ATP radioactive filter binding assay relative to control
[12] = target: Serine/threonine-protein kinase 3 (Homo sapiens) (UniProt Q13188); assay: Inhibition of MST2 at 10 uM assessed as residual activity by [33P]ATP radioactive filter binding assay relative to control
[13] = target: Mitogen-activated protein kinase kinase kinase kinase 2 (Homo sapiens) (UniProt Q12851); assay: Inhibition of GCK at 10 uM assessed as residual activity by [33P]ATP radioactive filter binding assay relative to control
Sequence of Mitogen-activated protein kinase kinase kinase kinase 2 (Homo sapiens) (Q12851 whole entry): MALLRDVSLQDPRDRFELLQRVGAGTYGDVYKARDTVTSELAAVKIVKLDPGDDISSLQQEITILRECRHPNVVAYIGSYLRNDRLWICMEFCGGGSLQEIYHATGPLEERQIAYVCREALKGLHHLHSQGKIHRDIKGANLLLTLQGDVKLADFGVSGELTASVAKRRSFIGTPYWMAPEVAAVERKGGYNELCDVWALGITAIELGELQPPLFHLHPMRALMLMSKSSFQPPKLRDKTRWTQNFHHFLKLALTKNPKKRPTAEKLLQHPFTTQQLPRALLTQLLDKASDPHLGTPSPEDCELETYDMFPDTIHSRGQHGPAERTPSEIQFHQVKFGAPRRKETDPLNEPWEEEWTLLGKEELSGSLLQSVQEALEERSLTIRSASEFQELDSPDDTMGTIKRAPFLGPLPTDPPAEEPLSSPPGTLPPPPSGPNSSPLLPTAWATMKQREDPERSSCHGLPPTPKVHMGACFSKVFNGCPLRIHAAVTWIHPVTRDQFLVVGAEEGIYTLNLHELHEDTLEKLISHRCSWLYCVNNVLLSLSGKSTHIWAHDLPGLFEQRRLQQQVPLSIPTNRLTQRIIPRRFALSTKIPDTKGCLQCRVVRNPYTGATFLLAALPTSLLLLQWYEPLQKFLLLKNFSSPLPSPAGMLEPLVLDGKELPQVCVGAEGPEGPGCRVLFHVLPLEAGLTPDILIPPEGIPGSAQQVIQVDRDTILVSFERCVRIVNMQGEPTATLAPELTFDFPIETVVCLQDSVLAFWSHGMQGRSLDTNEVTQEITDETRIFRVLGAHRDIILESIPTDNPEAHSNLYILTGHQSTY

[14] = target: Proto-oncogene tyrosine-protein kinase Src (Homo sapiens) (UniProt P12931); assay: Inhibition of Src at 10 uM assessed as residual activity by [33P]ATP radioactive filter binding assay relative to control
[15] = target: Protein kinase C zeta type (Homo sapiens) (UniProt Q05513); assay: Inhibition of PKCzeta at 10 uM assessed as residual activity by [33P]ATP radioactive filter binding assay relative to control
[16] = target: Serine/threonine-protein kinase PAK 4 (Homo sapiens) (UniProt O96013); assay: Inhibition of PAK4 at 10 uM assessed as residual activity by [33P]ATP radioactive filter binding assay relative to control
[17] = target: RAC-beta serine/threonine-protein kinase (Homo sapiens) (UniProt P31751); assay: Inhibition of PKBbeta at 10 uM assessed as residual activity by [33P]ATP radioactive filter binding assay relative to control
[18] = target: Mitogen-activated protein kinase 13 (Homo sapiens) (UniProt O15264); assay: Inhibition of p38delta at 10 uM assessed as residual activity by [33P]ATP radioactive filter binding assay relative to control
cells [19] = details: Mus musculus, BaF3, 96 h; remark: listed apart in the source
[20] = target: Dual specificity mitogen-activated protein kinase kinase 1 (Homo sapiens) (UniProt Q02750); assay: Inhibition of MKK1 at 10 uM assessed as residual activity by [33P]ATP radioactive filter binding assay relative to control
[21] = target: Serine/threonine-protein kinase pim-3 (Homo sapiens) (UniProt Q86V86); assay: Inhibition of PIM3 at 10 uM assessed as residual activity by [33P]ATP radioactive filter binding assay relative to control
[22] = target: SRSF protein kinase 1 (Homo sapiens) (UniProt Q96SB4); assay: Inhibition of SRPK1 at 10 uM assessed as residual activity by [33P]ATP radioactive filter binding assay relative to control
[23] = target: Myosin light chain kinase, smooth muscle (Homo sapiens) (UniProt Q15746); assay: Inhibition of SmMLCK at 10 uM assessed as residual activity by [33P]ATP radioactive filter binding assay relative to control
[24] = target: Serine/threonine-protein kinase Nek6 (Homo sapiens) (UniProt Q9HC98); assay: Inhibition of NEK6 at 10 uM assessed as residual activity by [33P]ATP radioactive filter binding assay relative to control
[25] = target: Mitogen-activated protein kinase 3 (Homo sapiens) (UniProt P27361); assay: Inhibition of ERK1 at 10 uM assessed as residual activity by [33P]ATP radioactive filter binding assay relative to control
[26] = target: Mitogen-activated protein kinase kinase kinase 11 (Homo sapiens) (UniProt Q16584); assay: Inhibition of MLK3 at 10 uM assessed as residual activity by [33P]ATP radioactive filter binding assay relative to control
Sequence of Mitogen-activated protein kinase kinase kinase 11 (Homo sapiens) (Q16584 whole entry, looked up): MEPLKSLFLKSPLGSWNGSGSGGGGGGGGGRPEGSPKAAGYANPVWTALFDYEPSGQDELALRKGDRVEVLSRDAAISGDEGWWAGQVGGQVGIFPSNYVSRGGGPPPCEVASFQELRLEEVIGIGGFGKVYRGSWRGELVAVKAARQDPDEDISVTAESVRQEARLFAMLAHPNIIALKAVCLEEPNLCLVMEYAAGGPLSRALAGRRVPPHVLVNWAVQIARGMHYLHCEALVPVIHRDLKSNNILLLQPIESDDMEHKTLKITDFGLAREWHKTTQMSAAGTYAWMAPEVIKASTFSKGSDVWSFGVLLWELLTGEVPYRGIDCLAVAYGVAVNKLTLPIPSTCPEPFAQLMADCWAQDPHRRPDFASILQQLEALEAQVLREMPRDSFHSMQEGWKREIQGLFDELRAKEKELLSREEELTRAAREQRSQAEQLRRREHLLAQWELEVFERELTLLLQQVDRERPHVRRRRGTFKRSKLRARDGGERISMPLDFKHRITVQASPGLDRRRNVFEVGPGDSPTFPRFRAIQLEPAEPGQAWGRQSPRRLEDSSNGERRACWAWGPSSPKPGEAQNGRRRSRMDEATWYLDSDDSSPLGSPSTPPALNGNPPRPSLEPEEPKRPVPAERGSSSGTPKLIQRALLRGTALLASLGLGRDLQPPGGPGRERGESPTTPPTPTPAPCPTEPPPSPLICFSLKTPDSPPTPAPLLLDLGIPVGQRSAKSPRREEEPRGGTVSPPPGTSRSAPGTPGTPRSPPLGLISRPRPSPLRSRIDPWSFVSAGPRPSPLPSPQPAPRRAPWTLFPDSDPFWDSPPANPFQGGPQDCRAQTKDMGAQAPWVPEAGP

[27] = target: Mitogen-activated protein kinase kinase kinase 9 (Homo sapiens) (UniProt P80192); assay: Inhibition of MLK1 at 10 uM assessed as residual activity by [33P]ATP radioactive filter binding assay relative to control
[28] = target: Serine/threonine-protein kinase STK11 (Homo sapiens) (UniProt Q15831); assay: Inhibition of LKB1 at 10 uM assessed as residual activity by [33P]ATP radioactive filter binding assay relative to control
Sequence of Serine/threonine-protein kinase STK11 (Homo sapiens) (Q15831 whole entry): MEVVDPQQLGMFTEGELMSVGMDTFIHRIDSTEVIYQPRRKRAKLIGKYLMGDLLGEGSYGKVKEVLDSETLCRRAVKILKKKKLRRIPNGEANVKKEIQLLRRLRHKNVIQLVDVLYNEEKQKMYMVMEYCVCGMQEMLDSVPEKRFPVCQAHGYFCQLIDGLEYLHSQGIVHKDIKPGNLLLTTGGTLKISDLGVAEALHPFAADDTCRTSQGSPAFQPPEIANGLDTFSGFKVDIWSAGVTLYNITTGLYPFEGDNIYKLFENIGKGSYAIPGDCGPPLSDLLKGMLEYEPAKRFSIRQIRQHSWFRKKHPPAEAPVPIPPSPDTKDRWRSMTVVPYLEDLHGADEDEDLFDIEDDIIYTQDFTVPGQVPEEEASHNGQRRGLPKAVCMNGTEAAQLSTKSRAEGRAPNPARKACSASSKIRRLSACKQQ

[29] = target: Aurora kinase B (Homo sapiens) (UniProt Q96GD4); assay: Inhibition of Aurora B at 10 uM assessed as residual activity by [33P]ATP radioactive filter binding assay relative to control
[30] = target: NUAK family SNF1-like kinase 1 (Homo sapiens) (UniProt O60285); assay: Inhibition of NUAK1 at 10 uM assessed as residual activity by [33P]ATP radioactive filter binding assay relative to control
Sequence of NUAK family SNF1-like kinase 1 (Homo sapiens) (O60285 whole entry): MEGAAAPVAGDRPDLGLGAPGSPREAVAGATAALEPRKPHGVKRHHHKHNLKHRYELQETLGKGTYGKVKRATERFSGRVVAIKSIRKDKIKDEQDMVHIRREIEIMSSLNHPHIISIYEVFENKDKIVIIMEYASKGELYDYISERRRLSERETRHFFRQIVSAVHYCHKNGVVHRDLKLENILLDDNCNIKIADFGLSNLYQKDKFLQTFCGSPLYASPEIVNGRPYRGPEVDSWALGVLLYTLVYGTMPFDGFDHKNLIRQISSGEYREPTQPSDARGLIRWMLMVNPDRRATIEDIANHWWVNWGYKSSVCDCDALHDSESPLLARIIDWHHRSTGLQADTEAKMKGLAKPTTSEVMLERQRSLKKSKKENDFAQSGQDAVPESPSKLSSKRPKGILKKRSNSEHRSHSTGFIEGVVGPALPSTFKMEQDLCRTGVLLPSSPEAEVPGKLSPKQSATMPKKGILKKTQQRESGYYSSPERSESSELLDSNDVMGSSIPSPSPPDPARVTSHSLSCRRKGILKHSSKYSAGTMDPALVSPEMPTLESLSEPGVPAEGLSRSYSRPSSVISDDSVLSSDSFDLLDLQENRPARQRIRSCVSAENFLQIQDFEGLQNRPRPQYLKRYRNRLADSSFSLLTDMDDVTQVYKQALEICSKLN

[31] = Inhibition of PHK at 10 uM assessed as residual activity by [33P]ATP radioactive filter binding assay relative to control
[32] = target: Dual specificity tyrosine-phosphorylation-regulated kinase 3 (Homo sapiens) (UniProt O43781); assay: Inhibition of DYRK3 at 10 uM assessed as residual activity by [33P]ATP radioactive filter binding assay relative to control
Sequence of Dual specificity tyrosine-phosphorylation-regulated kinase 3 (Homo sapiens) (O43781 whole entry): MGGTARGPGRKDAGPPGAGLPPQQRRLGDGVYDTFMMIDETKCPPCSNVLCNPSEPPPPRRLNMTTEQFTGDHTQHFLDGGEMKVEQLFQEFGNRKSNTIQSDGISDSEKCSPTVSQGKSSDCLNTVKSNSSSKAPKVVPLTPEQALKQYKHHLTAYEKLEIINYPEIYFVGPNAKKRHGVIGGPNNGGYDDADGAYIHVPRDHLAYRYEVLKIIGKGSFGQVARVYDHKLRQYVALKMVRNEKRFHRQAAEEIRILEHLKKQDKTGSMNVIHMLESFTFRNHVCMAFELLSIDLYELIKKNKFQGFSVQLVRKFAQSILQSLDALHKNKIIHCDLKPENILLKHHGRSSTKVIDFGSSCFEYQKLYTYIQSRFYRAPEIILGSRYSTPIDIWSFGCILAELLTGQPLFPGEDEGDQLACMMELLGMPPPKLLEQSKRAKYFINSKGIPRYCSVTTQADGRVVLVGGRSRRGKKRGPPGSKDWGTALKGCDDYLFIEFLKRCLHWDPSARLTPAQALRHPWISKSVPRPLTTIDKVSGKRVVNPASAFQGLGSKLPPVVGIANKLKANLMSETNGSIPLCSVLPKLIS

Sequence of Serine/threonine-protein kinase Chk2 (Homo sapiens) (O96017 whole entry): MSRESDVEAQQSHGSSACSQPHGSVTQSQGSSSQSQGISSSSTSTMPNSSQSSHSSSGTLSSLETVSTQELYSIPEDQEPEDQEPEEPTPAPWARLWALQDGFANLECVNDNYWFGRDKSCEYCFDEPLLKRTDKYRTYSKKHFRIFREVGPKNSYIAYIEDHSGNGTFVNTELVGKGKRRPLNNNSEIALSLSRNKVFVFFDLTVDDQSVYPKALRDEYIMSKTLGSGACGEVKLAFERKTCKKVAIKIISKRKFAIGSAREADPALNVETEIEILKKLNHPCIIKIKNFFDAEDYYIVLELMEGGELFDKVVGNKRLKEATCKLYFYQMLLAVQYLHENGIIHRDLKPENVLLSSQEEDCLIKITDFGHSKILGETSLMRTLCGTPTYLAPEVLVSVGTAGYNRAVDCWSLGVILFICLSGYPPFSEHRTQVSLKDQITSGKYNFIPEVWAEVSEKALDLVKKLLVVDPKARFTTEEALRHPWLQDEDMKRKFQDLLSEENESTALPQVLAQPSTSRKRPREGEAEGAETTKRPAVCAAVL

SMILES	Activity [1] [%]	Activity [2] [%]	Activity [3] [%]	Activity [4] [%]	Activity [5] [%]	Activity [6] [%]	GI50 (cells [7]) [nM]	Activity [8] [%]	Activity [9] [%]	Activity [10] [%]	Activity [11] [%]	Activity [12] [%]	Activity [13] [%]	Activity [14] [%]	Activity [15] [%]	Activity [16] [%]	Activity [17] [%]	Activity [18] [%]	GI50 (cells [19]) [nM]	Activity [20] [%]	other results
CN(C)CCCC(=O)Nc1ccc2ncnc(Nc3cccc(Br)c3)c2c1	38	95	89	52	35	105	< 500	93	49	72	65	90	48	44	86	83	80	79	> 5000	29	Activity [21]: 32%; Activity [22]: 87%; Activity [23]: 18%; Activity [24]: 77%; Activity [25]: 83%; Activity [26]: 65%; Activity [27]: 87%; Activity [28]: 103%; Activity [29]: 21%; Activity [30]: 39%; Activity [31]: 10%; Activity [32]: 27%
CN(C)CCCC(=O)Nc1ccc2nccc(Nc3cccc(Br)c3)c2c1	27	88	84	46	12	71	< 500	82	25	62	85	80	30	13	86	79	61	76	> 500	45	Activity [21]: 66%; Activity [22]: 75%; Activity [23]: 48%; Activity [24]: 85%; Activity [25]: 82%; Activity [26]: 84%; Activity [27]: 79%; Activity [28]: 94%; Activity [29]: 33%; Activity [30]: 37%; Activity [31]: 26%; Activity [32]: 32%
